Data taken from US8188284B2, “2-aminoquinolines” (Hoffman-La Roche Inc., priority 2008, dated 2012).

Tests used:
[1] = molecular target: T1, recombinant human 5-HT5A receptor (Homo sapiens, UniProt P47898); assay: [3H]LSD radioligand binding assay; conditions: [3H]LSD (approximately 1 nM), membranes from HEK-EBNA cells transiently expressing 5-HT5A receptors; Ki calculated from IC50 using the Cheng-Prussoff equation; read-out: Ki/nM 5-HT5A
T1 construct: expressed in transfected cells; host or cells: HEK-EBNA (Human Embryonic Kidney-EBNA) cells, transient cDNA expression, membranes
Procedure: A [^3H]LSD radioligand binding assay was used to determine the affinity of the compounds for the recombinant human 5-HT5A receptor, in membranes from transiently (cDNA) expressed 5-HT5A receptors in Human Embryonic Kidney-EBNA (HEK-EBNA) cells. Assay buffer consisted of Tris (50 mM) buffer containing 1 mM EGTA, 10 mM MgCl2 (pH 7.4) and 10 μM pargyline. The binding assay was carried out in 96-well-plates in the presence of [^3H]LSD (approximately 1 nM), approximately 2 μg/well of membrane protein, and 0.5 mg of Ysi-poly-1-lysine SPA beads in a final volume of 200 μl of buffer. Non-specific binding was defined using methiothepin 2 μM. Compounds were tested at 10 concentrations. All assays were conducted in duplicate and repeated at least two times. Assay plates were incubated for 120 min at room temperature before centrifugation. Bound ligand was determined using a Packard Topcount scintillation counter. IC50 values were calculated using a non-linear curve fitting program and Ki values calculated using the Cheng-Prussoff equation.

T1 sequence (P47898 whole entry): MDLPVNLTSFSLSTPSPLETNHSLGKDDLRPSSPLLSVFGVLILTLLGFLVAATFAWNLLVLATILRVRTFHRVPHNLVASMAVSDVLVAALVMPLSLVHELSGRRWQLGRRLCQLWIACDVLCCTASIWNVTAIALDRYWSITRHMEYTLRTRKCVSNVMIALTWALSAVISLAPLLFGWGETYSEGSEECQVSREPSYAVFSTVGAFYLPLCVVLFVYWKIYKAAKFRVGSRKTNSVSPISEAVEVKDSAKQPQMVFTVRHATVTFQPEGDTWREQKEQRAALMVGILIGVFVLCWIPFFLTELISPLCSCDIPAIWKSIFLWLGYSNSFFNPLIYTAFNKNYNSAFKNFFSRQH

| Ki [1] | melting point | Compound |
| --- | --- | --- |
| 23.2 nM | 142 °C | c1cnc(Nc2ccc3nc(N[C@@H]4CCc5ccccc54)ccc3c2)nc1 [Example 66, N^2—(R)-Indan-1-yl-N6-pyrimidin-2-yl-quinoline-2,6-diamine] |
| 15.7 nM | 88 °C | Cc1cc(C)nc(Nc2ccc3nc(N[C@@H]4CCc5ccccc54)ccc3c2)n1 [Example 67, N^6-(4,6-Dimethyl-pyrimidin-2-yl)-N^2—(R)-indan-1-yl-quinoline-2,6-diamine] |
| 20 nM | 103 °C | Cc1ccnc(Nc2ccc3nc(N[C@@H]4CCc5ccccc54)ccc3c2)n1 [Example 68, N^2—(R)-Indan-1-yl-N^6-(4-methyl-pyrimidin-2-yl)-quinoline-2,6-diamine] |
| 20.4 nM | 77 °C | c1ccc(Nc2ccc3nc(N[C@@H]4CCc5ccccc54)ccc3c2)nc1 [Example 69, N^2—(R)-Indan-1-yl-N^6-pyridin-2-yl-quinoline-2,6-diamine] |
| 7.7 nM | 72 °C | Cc1cccc(Nc2ccc3nc(N[C@@H]4CCc5ccccc54)ccc3c2)n1 [Example 72, N^2—(R)-Indan-1-yl-N^6-(6-methyl-pyridin-2-yl)-quinoline-2,6-diamine] |
| 11 nM | 165 °C | FC(F)(F)c1ccnc(Nc2ccc3nc(N[C@@H]4CCc5ccccc54)ccc3c2)n1 [Example 73, N^2—(R)-Indan-1-yl-N^6-(4-trifluoromethyl-pyrimidin-2-yl)-quinoline-2,6-diamine] |
| 8.7 nM | 127 °C | Cc1cc(Nc2ccc3nc(N[C@@H]4CCc5ccccc54)ccc3c2)no1 [Example 74, N^2—(R)-Indan-1-yl-N^6-(5-methyl-isoxazol-3-yl)-quinoline-2,6-diamine] |
| 24.8 nM | 226 °C | c1ccc2c(c1)CC[C@H]2Nc1ccc2cc(Nc3nnc(C4CC4)o3)ccc2n1 [Example 76, N^6-(5-Cyclopropyl-[1,3,4]oxadiazol-2-yl)-N^2—(R)-indan-1-yl-quinoline-2,6-diamine] |
| 21.2 nM | 129 °C | Cc1nnc(Nc2ccc3nc(N[C@@H]4CCc5ccccc54)ccc3c2)o1 [Example 77, N^2—(R)-Indan-1-yl-N^6-(5-methyl-[1,3,4]oxadiazol-2-yl)-quinoline-2,6-diamine] |
| 9.6 nM | 109 °C | OCCc1cccc(Nc2ccc3nc(N[C@@H]4CCc5ccccc54)ccc3c2)c1 [Example 83, 2-{3-[2-((R)-Indan-1-ylamino)-quinolin-6-ylamino]-phenyl}-ethanol] |
| 225 nM |  | CN(c1ccc2nc(N[C@@H]3CCc4ccccc43)ccc2c1)c1ccccn1 [Example 85, N^2—(R)-Indan-1-yl-N^6-methyl-N^6-pyridin-2-yl-quinoline-2,6-diamine] |

More lines, now with the values behind:

| Compound | Ki [1] | melting point |
| --- | --- | --- |
| COc1cccc2c1C(Nc1ccc3cc(Nc4cccc(C(F)(F)F)n4)ccc3n1)CC2 (racemic) [Example 91, rac-N^2-(7-Methoxy-indan-1-yl)-N^6-(6-trifluoromethyl-pyridin-2-yl)-quinoline-2,6-diamine] | 5.4 nM | 126 °C |
| COc1cccc2c1C(Nc1ccc3cc(Nc4nccc(C(F)(F)F)n4)ccc3n1)CC2 (racemic) [Example 92, rac-N^2-(7-Methoxy-indan-1-yl)-N^6-(4-trifluoromethyl-pyrimidin-2-yl)-quinoline-2,6-diamine] | 4.3 nM | 196 °C |
| COc1cccc2c1C(Nc1ccc3cc(Nc4nc(C)cc(C)n4)ccc3n1)CC2 (racemic) [Example 93, rac-N^6-(4,6-Dimethyl-pyrimidin-2-yl)-N^2-(7-methoxy-indan-1-yl)-quinoline-2,6-diamine] | 3.4 nM | 150 °C |
| COc1cccc2c1C(Nc1ccc3cc(Nc4cc(C)on4)ccc3n1)CC2 (racemic) [Example 95, rac-N^2-(7-Methoxy-indan-1-yl)-N^6-(5-methyl-isoxazol-3-yl)-quinoline-2,6-diamine] | 3.5 nM | 109 °C |
| Cc1cc(C)nc(Nc2ccc3nc(NC4COc5ccccc54)ccc3c2)n1 (racemic) [Example 97, rac-N^2-(2,3-Dihydro-benzofuran-3-yl)-N^6-(4,6-dimethyl-pyrimidin-2-yl)-quinoline-2,6-diamine] |  | 213 °C |
| FC(F)(F)c1ccnc(Nc2ccc3nc(NC4COc5ccccc54)ccc3c2)n1 (racemic) [Example 98, rac-N^2-(2,3-Dihydro-benzofuran-3-yl)-N^6-(4-trifluoromethyl-pyrimidin-2-yl)-quinoline-2,6-diamine] |  | 128 °C |
| Cc1cc(Nc2ccc3nc(NC4COc5ccccc54)ccc3c2)no1 (racemic) [Example 101, rac-N^2-(2,3-Dihydro-benzofuran-3-yl)-N^6-(5-methyl-isoxazol-3-yl)-quinoline-2,6-diamine] |  | 195 °C |
| Fc1ccc2c(c1)CCC2Nc1ccc2cc(Nc3nccc(C(F)(F)F)n3)ccc2n1 (racemic) [Example 103, rac-N^2-(5-Fluoro-indan-1-yl)-N^6-(4-trifluoromethyl-pyrimidin-2-yl)-quinoline-2,6-diamine] | 13.7 nM | 112 °C |
| Cc1cc(Nc2ccc3nc(NC4CCc5cc(F)ccc54)ccc3c2)no1 (racemic) [Example 106, rac-N^2-(5-Fluoro-indan-1-yl)-N^6-(5-methyl-isoxazol-3-yl)-quinoline-2,6-diamine] | 7.3 nM | 166 °C |
| COc1cccc2c1C(Nc1ccc3cc(Nc4cccc(C(F)(F)F)n4)ccc3n1)CO2 (racemic) [Example 109, rac-N^2-(4-Methoxy-2,3-dihydro-benzofuran-3-yl)-N^6-(6-trifluoromethyl-pyridin-2-yl)-quinoline-2,6-diamine] | 26.1 nM | 132 °C |
| COc1cccc2c1C(Nc1ccc3cc(Nc4nccc(C(F)(F)F)n4)ccc3n1)CO2 (racemic) [Example 110, rac-N^2-(4-Methoxy-2,3-dihydro-benzofuran-3-yl)-N^6-(4-trifluoromethyl-pyrimidin-2-yl)-quinoline-2,6-diamine] | 11.8 nM | 185 °C |
| COc1cccc2c1C(Nc1ccc3cc(Nc4nc(C)cc(C)n4)ccc3n1)CO2 (racemic) [Example 111, rac-N^6-(4,6-Dimethyl-pyrimidin-2-yl)-N^2-(4-methoxy-2,3-dihydro-benzofuran-3-yl)-quinoline-2,6-diamine] | 9.1 nM | 145 °C |
| COc1cccc2c1C(Nc1ccc3cc(Nc4cc(C)on4)ccc3n1)CO2 (racemic) [Example 113, rac-N^2-(4-Methoxy-2,3-dihydro-benzofuran-3-yl)-N^6-(5-methyl-isoxazol-3-yl)-quinoline-2,6-diamine] | 14.4 nM | 222 °C |
| O=C(NCc1ccc(F)cc1)c1ccc2nc(N[C@@H]3CCc4ccccc43)ccc2c1 [Example 52, 2-((R)-Indan-1-ylamino)-quinoline-6-carboxylic acid 4-fluoro-benzylamide] |  | 175 °C |
| COc1ccccc1CNC(=O)c1ccc2nc(N[C@@H]3CCc4ccccc43)ccc2c1 [Example 55, 2-((R)-Indan-1-ylamino)-quinoline-6-carboxylic acid 2-methoxy-benzylamide] | 281 nM | 168 °C |
| ON=C(c1ccc(F)cc1)c1ccc2nc(N[C@@H]3CCc4ccccc43)ccc2c1 [Example 56, (4-Fluoro-phenyl)-[2-((R)-indan-1-ylamino)-quinolin-6-yl]-methanone oxime] | 141 nM | 225.5 °C |
| CC(C)(C)n1nnc(Nc2ccc3nc(N[C@@H]4CCc5ccccc54)ccc3c2)n1 [Example 75, N^6-(2-tert-Butyl-2H-tetrazol-5-yl)-N^2—(R)-indan-1-yl-quinoline-2,6-diamine] | 25.9 nM | 146 °C |
